Assay results taken from patent EP1592418B1, “USE OF ENDOCANNABINOID-LIKE COMPOUNDS FOR TREATING CNS DEGENERATIVE DISORDERS” (Research & Innovation S.p.A., priority 2003, dated 2004).

Experiments:
[1] = Rectal temperature (central cannabinoid effect, hypothermia); format: in vivo, mouse; conditions: for ΔT (°C) rectal temperature: treated animals, Vehicle 0,1 ± 0,2
Protocol: (§1) The tested molecules were solubilised in DMSO, cremophor and PBS in a ratio of 1:1:18 and administered usually by intraperitonelly at the dosage of 10 mg/Kg 1 hour before the induction of anafilactic reaction. The animals were sacrificed 3 hours after the molecule administration.
TABLE 4. Rectal temperature in animals that have been treated with cannabinoids, endocannabinoids or molecules that are object of the present invention. Note a profound hypothermia induced by synthetic cannabinoid such as Win 55,212 or the endocannabinoid Anandamide while no alteration was induced by molecules that are object of the present invention.

Jurkat cells = assay: Evaluation of cellular viability by MTT assay; format: cell-based, human; conditions: 10 µM, incubated 18-24 hr, MTT, absorbance 570 nm
Protocol: Jurkat, an acute T-lymphoblastic leukemia cell line generated from a person, have been used. Cell culture have been cultured in RPMI-1640 culture medium containing 10% FBS.
Jurkat cells were cultured at 1x10^5 cells/ml in RPMI 1640 medium supplemented with 10% fetal bovine serum (FBS), 2mM L-glutamine and 100 U/ml penicillin + 100 ug/ml streptomycin.
To detect drug effect in vitro, MTT [3-(4,5-dimethylthiazol-2-yl)-2,5-diphenyltetrazolium bromide] assay was used as described (Carmichael J et al., 1987 Cancer Res. 47, 936-42). Briefly, cells were seeded in triplicate on 96-well culture plates at a density of 20000 cells/well. The drugs were added in order to have the final concentration of 10 µM (1 µl of a solution of 10mM in DMSO) and incubated for 18-24 hr. Then MTT (0.5 mg/ml) was added to each well, and plates were incubated for an additional 1 to 3 hr in the dark at 37 °C. After this time the MTT solution was aspirated from the wells and 0.1 ml of DMSO was added. The plates were allowed to stand for 10 min, and then the absorbance was determined in a SpectraCount (Packard) microplate reader at 570 nm. The drug effect was determined by comparing absorbances of treated and untreated cells.

[2] = test system: reverse passive Arthus reaction, mouse ear pinna; assay: Reverse passive Arthus reaction (RPA) in the mouse ear pinna: oedema and Evans blue extravasation; format: in vivo; conditions: mouse ear; for Extravasation / Riduction % (extravasation): 10 mg/Kg i.p.; for Extravasation: Evans blue density at 620 nm in ear homogenate supernatant, Vehicle 0,90±0,06, Naïve 0,04±0,01; for Oedema (mg): 10 mg/Kg intraperitoneally 1 hour before induction, weight increase of 8 mm punch vs contralateral ear, three hours after antigen, Vehicle 49,8 ± 1,2, Naive 23,7 ± 1,2; for Riduction % (extravasation): reduction of extravasation versus Vehicle (0)
From the text: The Arthus model (RPA) is a model of immune-complex mediated tissue damage that involves the passive subcutaneous introduction of an antibody and the systemic administration of the corresponding antigen. This inflammatory model has been used to test the in vivo activity of the synthesised molecules.
The reverse passive Arthus reaction is induced, in the mouse ear pinna, by the subcutaneous injection of an excess of IgG anti human albumin followed by i.v. adiministration of the corresponding Ag (i.e. human albumin) together with Evans blue, 2 mg for each mouse, for the evaluation of extravasation.
as §1
The oedema and the extravasations are evaluated tree hours after the i.v. administration of the antigen. The oedema is evaluated as the increase of weight of lesioned ear area dissected by a 8 mm biopsy punch as compared to the contralateral unlesioned auricular tissues. The extravasation is measured determining the Evans blue density at 620 nm in the supernatants deriving from ear homogenates following centrifugation at 10000 x g for 20 min.

[3] = Solubility (physico-chemical properties); format: physicochemical; conditions: for solubility: organic solvent or mixture, read-out: solubility in organic solvents

SMILES | ΔT (°C) rectal temperature [1] | Growth inhibition (% of control) (Jurkat cells) | Extravasation [2] | Oedema (mg) [2] | Riduction % (extravasation) [2] [%] | solubility ([3]; in DMSO and in chloroform) [µg/mL] | solubility in water [3] | solubility in organic solvents ([3]; in DMSO and in chloroform) | Extravasation ([2]; 10 mg/kg) | Oedema (mg) ([2]; 10 mg/kg) | Riduction % (extravasation) ([2]; 10 mg/kg) [%] | rectal temperature (in words) ([1]; mouse, in vivo)
CCCCCCCCCCCCCC(=O)NC(C)C [Example 1, N-isopropyl-myristoyl amide] | 0,2 ± 0,3 °C | 55.0 % of control | 0,57±0,03 | 39,9 ± 2,1 mg | 36.7 | > 10000 | scarcely soluble |  |  |  |  | 
CCCCCCCCCCCCCCCC(=O)NC(C)C [Example 2, N-isopropyl-palmitoyl amide] | 0,1 ± 0,1 °C | 55.6 % of control | 0,37±0,07 | 31,8 ± 1,8 mg | 58.9 | > 10000 | scarcely soluble |  |  |  |  | 
CCCCCCCCCCCCCCCCCC(=O)NC(C)C [Example 4, N-Isopropyl-stearoyl amide] | 0,2 ± 0,1 °C | 45.3 % of control | 0,20±0,03 | 26,5 ± 0,9 mg | 77.8 | > 10000 | scarcely soluble |  |  |  |  | 
CCCCCCCCCCCCCCCCNC(C)=O [Example 12, N-hexadecyl-acetyl-amide] | 0,2 ± 0,2 °C | 64.8 % of control | 0,72±0,03 | 41,5 ± 1,9 mg | 20.0 | > 10000 | scarcely soluble |  |  |  |  | 
CCCCCCCCCCCCCCCC(=O)NC1CCCCC1 [Example 15, N-cyclohexyl-palmitoyl amide] | 0,1 ± 0,1 °C | 63.2 % of control | 0,58±0,16 | 47,5 ± 4,2 mg |  |  | scarcely soluble | >10 mg/ml in DMSO and in chloroform |  |  |  | 
CCCCCCCCCCCCCCCC(=O)NCC(C)C [Example 25, N-isobutyl-palmitoyl amide] | 0,3 ± 0,1 °C |  | 0,72±0,07 | 42,4 ± 2.4 mg | 20.0 | > 10000 | scarcely soluble |  |  |  |  | 
CCCCCCCCCCCCCCCC(=O)NC1CCC1 [Example 27, N-cyclobutyl-palmitoyl amide] | 0,1 ± 0,1 °C | 29.2 % of control | 0,39±0,11 | 38,5 ± 0.9 mg | 56.7 | > 10000 | scarcely soluble |  |  |  |  | 
CCCCCCCCCCCCCCCC(=O)NC1CCCC1 [Example 37, N-cyclopentyl-palmitoyl amide] |  | 32.1 % of control |  |  |  | > 10000 | scarcely soluble |  | 0,64±0,13 | 36,2 ± 0.9 mg | 52.5 | 
CCCCCCCCCCCCCCCC(N)=O [Palmitoylamide] | 0,2 ± 0,1 °C | 33.9 % of control | 0,35±0,05 | 33,2 ± 0.7 mg | 61.2 |  |  |  |  |  |  | 
CCCCCCCCCCCCCCCCCC(N)=O [Starylamide, stearylamide] | 0,3 ± 0,2 °C | 35.2 % of control | 0,31±0,08 | 30,8 ± 0.5 mg | 65.6 |  |  |  |  |  |  | 
Cc1c(C(=O)c2cccc3ccccc23)c2cccc3c2n1[C@H](CN1CCOCC1)CO3 [WIN 55.212, reference compound] | -5,1 ± 1,3 °C | 79.2 % of control | 0,51 ±0,02 | 33,7 ± 4,6 mg | 43.5 |  |  |  |  |  |  | drastic reduction
